pIC50: −log10 of the molar value. Read-outs that look alike come from different tables or passages of the source.
Assays:
[1] = biological target: pseudo-kinase domain (JH2) of human V617F mutant JAK2 (Homo sapiens (Human), UniProt O60674, F794H/V617F/W659A/W777A); test: JAK2 LanthaScreen JH2-V617F Binding Assay; details: read-out: JH2 V617F Bind IC50
Experimental: JAK2 JH2-V617F binding assay utilizes pseudo-kinase domain (JH2, amino-acids 536-812 with 3 surface mutations W659A, W777A, F794H) of human V617F mutant JAK2 expressed as C-terminal His-Avi-tagged, biotinylated protein in a baculovirus expression system (BPS Bioscience, Catalog #79498). The assay was conducted in black 384-well polystyrene plates in a final reaction volume of 20 μL. JAK2 JH2-V617F (0.26 nM) was incubated with compounds (100 nL serially diluted in DMSO) in the presence of 50 nM Fluorescent JAK2-JH2 Tracer (MedChem Express Catalog #HY-102055) and 0.25 nM Streptavidin-Tb cryptate (Cisbio Part #610SATLB) in assay buffer (50 mM Tris, pH=7.5, 10 mM MgCl2, 0.01% Brij-35, 0.1% BSA, 1 mM EGTA, 5% Glycerol and 5 mM DTT). Non-specific binding was accessed in the presence of 2 mM ATP. After incubation for 1 hour at 25° C., LanthaScreen signals were read on a PHERAstar FS plate reader (BMG LABTECH). Data was analyzed with IDBS XLfit and GraphPad Prism 5.0 software using a four parameter dose response curve to determine IC50 for each compound.

FaSSIF Solubility Assay = type: physicochemical; details: FaSSIF (fasted state simulated intestinal fluid), 25 °C, pH 6.5, fassif, thermodynamic from solid, FaSSIF pH=6.5, 25° C.
From the text: The FaSSIF (Fasted State Simulated Intestinal Fluid) solubility assay can predict how an oral drug is likely to be dissolved and potentially absorbed in the upper intestine after drinking a glass of water. FaSSIF solubility assay utilizes biorelevant intestinal media (Biorelevant, Part #FFF01) comprised of physiological surfactants, bile salts, and phospholipids that are present in the gastrointestinal fluids it mimics. FaSSIF (pH=6.5) has the average pH of a fasted intestinal fluid with similar osmolarity. The FaSSIF buffer was prepared by adding 20 mL of phosphate buffer to FaSSIF Powder. The buffer was then added to the dry compound of interest at a concentration of 1 mg/mL and then incubated at 25° C. for 24 hours in a Rototherm Plus (Part #H2024). After incubation, the Eppendorf tubes were centrifuged and run on an Agilent 1260 LC-MS. The LC-MS method is a 5 min gradient method of 2% to 95% acetonitrile with water (0.05% TFA) using a Sunfire C18, 5 um 2.1×50 mm (Part #186002539) column. A dry reference compound of interest was diluted to a known 1 mg/mL concentration in 1:1 of water and acetonitrile. Step-wise serial dilutions were performed and run on an Agilent 1260 LC-MS using the same conditions to make a standard curve. The area under the curve is reported for the compound of interest in FaSSIF buffer and the reference standards. Calculations were performed and the predicted solubility, μg/mL, was reported for compounds of the examples.

FLT3 [2] = biological target: FLT3 (Homo sapiens (Human), UniProt P36888); test: FLT3 Enzymatic Assay; type: biochemical; details: 1 mM ATP
Experimental: (§1) The kinase assays were carried out at room temperature in assay buffer (HEPES 50 mM, pH 7.0, NaN3 0.02%, BSA 0.01%, Orthovanadate 0.1 mM, DTT 1 mM, MgCl2 10 mM) in a final volume of 10 μL. Testing compounds were prepared by serial dilution in DMSO and transferred to the plate wells by ECHO liquid handler (Labcyte) with 0.5% DMSO in the final assay. […]. Reactions were initiated by the addition of 5 μL ATP in assay buffer. The final 10 μL kinase reaction consists of 0.011 nM FLT3, 1 mM ATP, 500 nM TK Substrate-biotin and SEB reagent 62.5 nM in assay buffer. […] The plates were then sealed and centrifuged at 1800 rpm for 2 minutes. After 60 minutes incubation at room temperature, the product activity was determined by measuring the fluorescence at 620 nm and 665 nm on Pherastar microplate reader (BMG Labtech). A ratio is calculated (665/620 nm) for each well. Wells with DMSO only were served as the positive controls and wells containing no ATP were used as negative controls. IC50 determination was performed by fitting the curve of percent control activity versus the log of the compound concentration using the GraphPad Prism 7.0 software.

FLT3 [3] = test: FLT3 Enzymatic Assay; type: biochemical
Experimental: as §1

TRKA [4] = biological target: TRKA (Homo sapiens (Human), UniProt P04629); test: TRKA Enzymatic Assay; type: biochemical; details: 1 mM ATP
Experimental: (§2) The kinase assays were carried out at 24° C. temperature in assay buffer (HEPES 50 mM, pH 7.0, NaN3 0.02%, BSA 0.01%, Orthovanadate 0.1 mM, DTT 1 mM, MgCl2 10 mM) in a final volume of 10 μL. Testing compounds were prepared by serial dilution in DMSO and transferred to the plate wells by ECHO liquid handler (Labcyte) with 0.5% DMSO in the final assay. […]. Reactions were initiated by the addition of 5 μL ATP in assay buffer. The final 10 μL kinase reaction consisted of 0.58 nM TRKA, 1 mM ATP, 500 nM TK Substrate-biotin and SEB reagent 62.5 nM in assay buffer. […] After 60 minutes incubation at room temperature, the product activity was determined by measuring the fluorescence at 620 nm and 665 nm on Pherastar microplate reader (BMG Labtech). A ratio was calculated (665/620 nm) for each well. Wells with DMSO only served as the positive controls and wells containing no ATP were used as negative controls. IC50 determination was performed by fitting the curve of percent control activity versus the log of the compound concentration using the Gene data.

TRKA [5] = test: TRKA Enzymatic Assay; type: biochemical
Experimental: as §2

[6] = test system: STAT5 (Tyr694) phosphorylation in SET-2 cells; test: STAT5 (Tyr694) Phosphorylation Cell Based Assay; details: Homo sapiens, 2 hours, read-out: SET2 IC50
Experimental: SET-2 cells was purchased from DSMZ (Germany). RPMI1640 medium, Fetal Bovine Serum and 384-white sold flat-bottom small volume plate were purchased from Thermo Fisher Scientific (Waltham, MA). Phospho-STAT5 (Tyr694) HTRF kit was purchased from Perkin Elmer (Waltham, MA).
SET-2 cells were cultured in RPMI media with 20% FBS at 37° C. in humidified incubator supplied with 5% CO2. On the day of assay, the cells were centrifuged to remove the culture media and resuspended with prewarmed RPMI with 10% FBS. Testing compounds were prepared by serial dilution in DMSO and 50 nL/well test compounds were transferred to the 384 white low volume cell culture plate (Greiner Bio-one) by ECHO liquid handler (Labcyte). The cells were then dispensed with Multidrop (Thermo Fisher, Waltham, MA) at 10 μL/well (7×10^6 cells/mL) with 0.5% DMSO in the final assay. After the treated cells were incubated for 2 hours at 37° C./5% CO2 incubator, 4 μL/well supplemented lysis buffer (100× blocking buffer diluted 25 fold in 4× lysis buffer, Perkin Elmer) were added and incubated at room temperature for 90 min on orbital shaker at 600 rpm. Phospho-STAT5 Cryptate antibody and Phospho-STAT5 d2 antibody (1:1 vol/vol) were premixed and diluted 20 fold with in the detection buffer (Perkin Elmer). 4 μL of the premixed antibody solution were added to each well followed with 24 hours incubation at room temperature on orbital shaker at 600 rpm. The product activity was determined by measuring the fluorescence at 620 nm and 665 nm on Pherastar microplate reader (BMG Labtech). A ratio is calculated (665/620) for each well. Wells with DMSO only served as the positive controls and wells containing high concentration of control compound were used as negative controls. IC50 determination was performed by fitting the curve of percent control activity versus the log of the compound concentration using the GraphPad Prism 7.0 software.

Chain of pseudo-kinase domain (JH2) of human V617F mutant JAK2 (O60674 536-812 V617F/W659A/W777A/F794H): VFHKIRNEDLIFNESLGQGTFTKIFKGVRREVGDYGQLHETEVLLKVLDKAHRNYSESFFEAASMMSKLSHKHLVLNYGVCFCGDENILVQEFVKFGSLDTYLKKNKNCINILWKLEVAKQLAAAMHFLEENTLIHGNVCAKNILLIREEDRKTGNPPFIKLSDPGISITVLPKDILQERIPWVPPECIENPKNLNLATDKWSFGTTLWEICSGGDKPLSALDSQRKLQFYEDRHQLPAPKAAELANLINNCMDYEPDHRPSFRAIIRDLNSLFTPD
Chain of FLT3 (Homo sapiens (Human), UniProt P36888) (P36888 27-993, species assumed): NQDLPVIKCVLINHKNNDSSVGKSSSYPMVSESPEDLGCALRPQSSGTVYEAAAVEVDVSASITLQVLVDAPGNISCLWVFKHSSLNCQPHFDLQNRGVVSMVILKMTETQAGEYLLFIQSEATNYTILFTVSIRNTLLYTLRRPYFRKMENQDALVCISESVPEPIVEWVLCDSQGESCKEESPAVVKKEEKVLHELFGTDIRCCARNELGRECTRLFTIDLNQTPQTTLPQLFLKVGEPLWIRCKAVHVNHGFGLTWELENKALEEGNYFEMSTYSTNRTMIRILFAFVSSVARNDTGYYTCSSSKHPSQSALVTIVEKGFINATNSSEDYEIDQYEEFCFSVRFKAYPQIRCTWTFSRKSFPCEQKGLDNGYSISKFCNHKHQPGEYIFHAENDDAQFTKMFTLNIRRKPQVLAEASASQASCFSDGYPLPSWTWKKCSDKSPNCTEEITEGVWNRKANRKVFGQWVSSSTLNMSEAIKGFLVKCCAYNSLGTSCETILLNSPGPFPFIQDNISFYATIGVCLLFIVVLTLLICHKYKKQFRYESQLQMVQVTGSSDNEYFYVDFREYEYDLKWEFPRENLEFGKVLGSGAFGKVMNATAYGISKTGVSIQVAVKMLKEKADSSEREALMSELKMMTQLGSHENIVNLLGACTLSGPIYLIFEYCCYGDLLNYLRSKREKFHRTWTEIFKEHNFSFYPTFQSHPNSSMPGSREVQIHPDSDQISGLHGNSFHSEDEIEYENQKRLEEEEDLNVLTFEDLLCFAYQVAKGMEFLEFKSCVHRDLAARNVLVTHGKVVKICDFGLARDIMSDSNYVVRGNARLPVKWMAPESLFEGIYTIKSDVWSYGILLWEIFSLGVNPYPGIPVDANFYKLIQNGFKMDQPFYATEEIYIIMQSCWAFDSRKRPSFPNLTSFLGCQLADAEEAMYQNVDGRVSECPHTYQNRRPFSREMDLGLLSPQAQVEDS
Chain of TRKA (Homo sapiens (Human), UniProt P04629) (P04629 33-796, species assumed): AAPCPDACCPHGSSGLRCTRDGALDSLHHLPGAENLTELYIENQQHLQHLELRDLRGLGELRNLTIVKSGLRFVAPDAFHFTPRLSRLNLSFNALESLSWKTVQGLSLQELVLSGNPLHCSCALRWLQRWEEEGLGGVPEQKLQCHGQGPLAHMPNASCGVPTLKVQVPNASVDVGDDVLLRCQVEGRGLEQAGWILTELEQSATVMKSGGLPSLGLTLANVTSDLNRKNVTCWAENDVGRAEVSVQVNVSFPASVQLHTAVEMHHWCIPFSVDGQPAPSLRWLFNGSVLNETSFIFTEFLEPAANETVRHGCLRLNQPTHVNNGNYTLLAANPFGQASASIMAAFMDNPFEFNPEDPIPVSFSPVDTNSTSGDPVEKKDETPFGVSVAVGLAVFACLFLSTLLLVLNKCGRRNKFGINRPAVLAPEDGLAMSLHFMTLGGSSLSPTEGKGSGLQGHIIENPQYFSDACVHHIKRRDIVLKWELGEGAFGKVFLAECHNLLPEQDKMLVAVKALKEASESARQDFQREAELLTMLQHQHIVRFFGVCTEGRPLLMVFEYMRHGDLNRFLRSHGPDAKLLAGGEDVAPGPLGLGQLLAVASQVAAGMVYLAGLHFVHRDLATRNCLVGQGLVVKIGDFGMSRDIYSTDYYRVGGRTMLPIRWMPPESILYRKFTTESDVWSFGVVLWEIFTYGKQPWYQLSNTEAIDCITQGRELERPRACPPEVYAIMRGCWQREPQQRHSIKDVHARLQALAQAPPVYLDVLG

COc1ccc(-c2c(-c3cnn(Cc4ccncc4)c3)[nH]c3ncc4c(c23)n(C2CCCC2)c(=O)n4C)cc1 [Comparative Example D, reference compound]
pIC50 [1]: ≥ 8.00
solubility at 24 h (FaSSIF Solubility Assay; read-out: FaSSIF solubility): < 20 µg/mL

CN(C)C(=O)c1ccc(-c2[nH]c3ncc4c(c3c2-c2ccc3c(cnn3C)c2)n(C2CCCC2)c(=O)n4C)cc1 [Comparative Example F, reference compound]
pIC50 [1]: ≥ 8.00
pIC50 (FLT3 [2]): 6.60 to 7.60
Selectivity FLT3/JH2 V617F (FLT3 [3]): * (selectivity of ≤500-fold)
pIC50 (TRKA [4]): 6.60 to 7.60
Selectivity TRKA/JH2 V617F (TRKA [5]): * (selectivity of ≤500-fold)
solubility at 24 h (FaSSIF Solubility Assay; read-out: FaSSIF solubility): < 20 µg/mL
solubility at 24 h (FaSSIF Solubility Assay; read-out: Solubility Fassif): ≤ 50 µg/mL
pIC50 [6]: 6.10 to 6.52

Reference: patent US20250092044A1, “Kinase Inhibitors” (Incyte Corporation, priority 2023, published 2025)
